Data published in patent publication US20260027073A1, “USE OF SMALL-MOLECULE COMPOUND HAVING NAPHTHYLAMINE STRUCTURE” (HANGZHOU PHECDAMED CO., LTD., priority 2023, published 2026).

Legend:
[1] = system: rats with 5/6 nephrectomy; experiment: 5/6 nephrectomy-induced renal injury; format: in vivo, SD rats
Protocol: 5/6 nephrectomy directly leads to a large reduction of renal units, high workload of residual renal units, and combined hypertension (or non-hypertension), and these features are similar to the symptoms of patients with clinical nephrectomy, CKD hypertensive syndrome, and solitary kidney, and like, and the pathological changes are dominated by glomerulosclerosis and tubulo-fibrosis, which is a good model for the study of CKD. The model was prepared as follows, 230-250 g male SD rats were anesthetized with isoflurane gas, and an incision of about 3 cm at 1 cm left and below of the cribriform ridge corner was made, fully exposing the left kidney, and after exposing the kidney in the sham group, the muscle and skin were sutured with sutures, during which there was no ligation and no resection. In the model group, about ⅓ of the cortex of the upper and lower left kidney was cut with ophthalmic surgical scissors, and was pressed with the absorbable gelatin sponge to stop bleeding for 3 min, then the hemostatic clip was released, and whether there is obvious bleeding was observed and the residual kidney was reset, and the muscle and skin were sutured with sutures. After 1 week, the second surgery was performed, and after fully exposing the right kidney, the renal pedicle and the ureter were ligated, and the right kidney was resected. Similarly, in the sham group, after exposing the kidney, the muscle and skin were sutured with sutures, during which there was no ligation and no resection. Penicillin (80 kU/rat) was routinely injected for three days after surgery. […] In the experiment, 10 d after the end of the right nephrectomy surgery, the serum creatinine level of rats increased, which was statistically significant compared to the sham group, and began to be administered in groups.
The experiments were conducted in sham group (exposing both kidneys without resection), Control group (model group, given vehicle treatment by oral gavage), and 15 mg/kg I-1 group (15 mg/kg by oral gavage), respectively, during the experimental period, a drug was administered once a day for a total of 27 days, and the 24-hour urine of the rats in each group was collected by metabolism cages on the 28th day to measure the volume of urine, urine creatinine, and urine protein. At the same time, blood was collected from the heart, and the blood was centrifuged at 12000 g for 10 min at 4° C. after standing at room temperature for 45 min, the supernatant (serum) was taken to measure the creatinine level in the serum, and finally the creatinine clearance was calculated. After euthanasia of rats at endpoint of the test, the kidneys were dissected and removed, in which four kidneys of rats were fixed with 4% paraformaldehyde for 48 h, paraffin-embedded, sectioned, and HE stained as described above.

[2] = system: Mouse Model of Chemotherapy-Induced POF; experiment: Chemotherapy (cyclophosphamide)-induced premature ovarian failure; format: in vivo, C57BL/6J mice; conditions: for body weight / ovarian coefficient (ratio of ovarian weight to body weight) / ovarian weight: 30 mg/kg oral gavage, FIG. 67; for serum FSH level / serum E2 level / BDNF level in ovarian tissues: 30 mg/kg; for serum FSH level: FIG. 68; for serum E2 level: FIG. 69; for BDNF level in ovarian tissues: FIG. 70; for effect of TJ01-013 compared with I-14-1: b553: ovarian coefficient, b560: FSH concentration, serum E2 level and BDNF level
Protocol: Eight-week-old C57BL/6J mice (weighing about 20-25 g) were selected and adaptively fed for 7 d firstly, after which they were randomly divided into three groups according to their body weights, namely, the control group (Control, n=8), the model group (Cy, treated with the solvent 0.5% CMC-Na, n=8), and the TJ01-013 treatment group (Cy+TJ01-013, 30 mg/kg TJ01-013 by oral gavage, n=8). kg TJ01-013, n=8), I-14-1 treatment group (Cy+I-14-1, 30 mg/kg I-14-1 by oral gavage, n=8). The model group and the TJ01-013 treatment group received a single intraperitoneal injection of cyclophosphamide (75 mg/kg, 200-300 μl), and the control group received a single intraperitoneal injection of an equal volume of saline. Samples were collected after 12 days of administration, and body weights, ovary weights, and levels of the serum hormones E2 and FSH of the mice were measured.
The body weight and bilateral ovarian wet weight of each group of mice were weighed with an electronic balance and an analytical balance respectively, and the ovarian organ coefficient of each group was calculated according to the body weight of mice (g) and bilateral ovarian wet weight (mg). The formula is: […]
After the experiment reached the end point, blood was collected from the orbit, and the blood was centrifuged at 12,000 g for 10 min after standing still at room temperature for 45 min, and the supernatant (serum) was taken, and the levels of E2, FSH and BDNF in serum were detected by ELISA.
The mice were euthanized after reaching the end point of the experiment, and the levels of BDNF in the ovarian tissues were assayed by ELISA after the ovaries were extracted and ground.

## O=C(O)C[S+]([O-])c1cc(NS(=O)(=O)c2ccc(Br)cc2)c2ccccc2c1O (centres unmarked) [I-1]
[1]; 15 mg/kg oral gavage, 27 days, FIG. 6
  24 h urine protein content: significantly reduced
[1]; 15 mg/kg oral gavage, 27 days, P<0.001, FIG. 5
  blood creatinine level: significantly reduced
[1]; 15 mg/kg oral gavage, 27 days, vs model group, P<0.05, FIG. 4
  body weight: significant increase
[1]; 15 mg/kg, 27 days, FIG. 8
  degree of lesions in the renal tissues (HE staining): improved the degree of lesions
[1]; 15 mg/kg, 27 days, vs model control, FIG. 7
  creatinine clearance rate: improvement trend
[1]; Degree of lesion +++ (severe lesions), 15 mg/kg
  Renal lesions (number of kidneys, n = 4): 0
[1]; Degree of lesion ± (slight lesions), 15 mg/kg
  Renal lesions (number of kidneys, n = 4): 0
[1]; Degree of lesion − (no lesions seen), 15 mg/kg
  Renal lesions (number of kidneys, n = 4): 0
[2]
  body weight: no significant change
  ovarian coefficient (ratio of ovarian weight to body weight): significantly elevated
  ovarian weight: significantly elevated
  serum FSH level: significantly decreased
  serum E2 level: increased significantly
  BDNF level in ovarian tissues: increased significantly
[2]; listed as TJ01-013
  effect of TJ01-013 compared with I-14-1: more effective
[2]; listed as TJ0113
  effect of TJ01-013 compared with I-14-1: better

## O=C(O)C[S+]([O-])c1cc(NS(=O)(=O)c2ccc(C(F)(F)F)cc2)c2ccccc2c1O (centres unmarked) [I-14-1]
[2]
  body weight: no significant change
  ovarian coefficient (ratio of ovarian weight to body weight): significantly elevated
  ovarian weight: significantly elevated
  serum FSH level: significantly decreased
  serum E2 level: increased significantly
  BDNF level in ovarian tissues: increased significantly

## O=C(O)CSc1cc(NS(=O)(=O)c2ccc(Br)cc2)c2ccccc2c1O [UMI-77, reference compound]
[1]; UMI-77 vs I-1
  protection against 5/6 nephrectomy-induced renal injury compared with I-1 group: less protective
